Reference: PMC7835927, “Natural Polyhydroxy Flavonoids, Curcuminoids, and Synthetic Curcumin Analogs as α7 nAChRs Positive Allosteric Modulators” (International Journal of Molecular Sciences, 2021)
Read-outs that look alike come from different tables or passages of the source.

Assays:
human α7 nAChRs = target: T1, human α7 nAChRs (Homo sapiens, UniProt P36544); test: Two-electrode voltage-clamp in Xenopus oocytes expressing human α7 nAChRs: potentiation of ACh-evoked currents; assay type: cell-based; conditions: for nH of ACh concentration-response curve / Imax of ACh concentration-response curve / maximal potentiating effect: Hill fit; for activity at 10 µM: read-out: % ± s.e. Current vs. ACh [200 µM]; for % ± s.e. Current vs. ACh [200 µM]: Table 1; for % ± s.e. Current vs. ACh [200 µM] / % ± s.e. Current Vs. ACh [200 µM]: compound 10 µM co-applied with 200 µM ACh, −80 mV, normalized to ACh alone, 6–10 oocytes; for maximal potentiating effect: concentration-response, co-applied with ACh 200 µM, estimated; for % ± s.e. Current Vs. ACh [200 µM]: Table 2; for PAM properties / effect on ACh-induced currents, in words: 10 µM screening
T1 construct: expressed in transfected cells; host or cells: Xenopus laevis oocytes injected with in vitro transcribed capped cRNA (pSP64T derivatives)
T1 sequence (P36544 23-502): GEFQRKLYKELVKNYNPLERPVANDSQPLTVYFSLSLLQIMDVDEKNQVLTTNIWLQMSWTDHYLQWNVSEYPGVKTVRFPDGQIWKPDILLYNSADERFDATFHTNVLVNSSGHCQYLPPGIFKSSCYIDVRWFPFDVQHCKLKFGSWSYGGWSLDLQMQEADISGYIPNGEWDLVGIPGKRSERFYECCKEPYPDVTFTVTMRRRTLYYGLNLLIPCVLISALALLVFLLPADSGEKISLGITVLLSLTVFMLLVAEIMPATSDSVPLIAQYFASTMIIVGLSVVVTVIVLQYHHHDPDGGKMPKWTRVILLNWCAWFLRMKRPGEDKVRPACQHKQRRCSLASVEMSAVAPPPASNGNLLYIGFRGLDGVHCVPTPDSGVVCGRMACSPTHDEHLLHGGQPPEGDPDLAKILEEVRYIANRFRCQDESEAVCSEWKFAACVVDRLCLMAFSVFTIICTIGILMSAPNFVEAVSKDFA
Description: The obtained compounds were screened to determine their capacity to modulate the α7 nAChR activity (Table 2).
All human nAChR cDNAs were cloned in derivatives of the pSP64T vector containing part of the pBluescript polylinker. Capped mRNA was synthesized in vitro using SP6 RNA polymerase, the mMESSAGEmMACHINE kit from Ambion (Thermo Fisher Scientific, Madrid, Spain), and the pSP64T derivatives mentioned above. Defoliculated Xenopus laevis oocytes were injected with 5 ng of each subunit cRNA in 50 nL of sterile water. All experiments were performed within 2–3 days after cRNA injection. […] Barium, instead of calcium, was used as the extracellular divalent cation to avoid the presence of calcium-activated chloride currents. […] All experiments were performed at 22 °C. The holding potential was usually −80 mV. Current records were measured with Clampfit 10.0 (MDS Analytical Technologies, Sunnyvale, CA, USA). […] Data are expressed as mean ± SEM. All chemicals were purchased from Sigma-Aldrich (St. Louis, MO, USA).

α7 nAChRs = conditions: cited from earlier work; for reported profile on ACh-evoked α7 nAChR currents in oocytes: oocytes expressing α7 nAChRs
[1] = Solubility as noted in the concentration-response experiments; assay type: physicochemical; conditions: hindered the use of higher concentrations in the curves
Description: Figure 1 Characterization of curcumin (12) and two curcuminoids (compounds 13 and 14). (a–c) Ionic currents recorded in representative oocytes expressing human α7 nAChRs. […] All currents were recorded at a holding potential of –80 mV. […] Continuous lines represent the fit to the Hill equation. […] Thus, maximal potentiating effects were estimated as 11 ± 3-, 5.5 ± 0.3-, and 5.5 ± 1.0-fold for compounds 12, 13, and 14, respectively. […] Data were taken from 3–7 oocytes from at least 2 donors.

[2] = Chemical stability in H2O/acetonitrile 20/80 checked by HPLC; assay type: physicochemical; conditions: period of two months
Text: To discard any possible artefacts due to decomposition of the compounds in solution, the chemical stability of the best compounds 17, 23, and 25 was checked in aqueous mixtures of H2O/acetonitrile 20/80 for a period of two months.

[3] = read-out: EC50 of potentiating effect
[4] = in the presence of compound 13 vs absence

## CC(=O)OCC[N+](C)(C)C [ACh, acetylcholine]
Human α7 nAChRs; control conditions (ACh alone)
  nH of ACh concentration-response curve: 1.25
Human α7 nAChRs; control conditions (ACh alone), normalized to peak current with 1 mM ACh
  Imax of ACh concentration-response curve: 1.25

## O=c1cc(-c2ccc(O)cc2)oc2cc(O)cc(O)c12 [Compound 1, Apigenin]
Human α7 nAChRs
  activity at 10 µM: 108 ± 4%

## O=c1c(O)c(-c2ccc(O)c(O)c2)oc2cc(O)cc(O)c12 [Compound 2, Quercetin]
Human α7 nAChRs
  % ± s.e. Current vs. ACh [200 µM]: 130 ± 10%
α7 nAChRs
  reported profile on ACh-evoked α7 nAChR currents in oocytes: PAM profile

## O=c1cc(-c2ccc(O)c(O)c2)oc2cc(O)cc(O)c12 [Compound 3, Luteolin]
Human α7 nAChRs
  activity at 10 µM: 125 ± 5.5%

## O=c1c(-c2ccc(O)cc2)coc2cc(O)cc(O)c12 [Compound 4, Genistein]
Human α7 nAChRs
  activity at 10 µM: 154 ± 10%
α7 nAChRs
  reported profile on ACh-evoked α7 nAChR currents in oocytes: PAM profile

## O=c1c(O)c(-c2ccc(O)c(O)c2)oc2c(O)c(O)cc(O)c12 [Compound 5, Gossypetin]
Human α7 nAChRs
  activity at 10 µM: 115 ± 2%

## O=c1c(O)c(-c2ccc(O)cc2)oc2cc(O)cc(O)c12 [Compound 6, Kaempferol]
Human α7 nAChRs
  activity at 10 µM: 155 ± 5%

## O=c1c(O)c(-c2cc(O)c(O)c(O)c2)oc2cc(O)cc(O)c12 [Compound 7, Myricetin]
Human α7 nAChRs
  activity at 10 µM: 97 ± 6%

## O=C1C[C@@H](c2ccc(O)c(O)c2)Oc2cc(O)cc(O)c21 [Compound 8, Eriodictyol]
Human α7 nAChRs
  activity at 10 µM: 108 ± 2.5%

## O=C1C[C@@H](c2ccc(O)cc2)Oc2cc(O)cc(O)c21 [Compound 9, Naringenin]
Human α7 nAChRs
  activity at 10 µM: 105 ± 3%

## O=C1c2c(O)cc(O)cc2OC(c2ccc(O)c(O)c2)C1O (stereo not drawn) [Compound 10, Taxifolin]
Human α7 nAChRs
  activity at 10 µM: 107 ± 5.5%

## O=C(CCc1ccc(O)cc1)c1c(O)cc(O)cc1O [Compound 11, Phloretin]
Human α7 nAChRs
  activity at 10 µM: 231 ± 0.5%

## COc1cc(/C=C/C(=O)CC(=O)/C=C/c2ccc(O)c(OC)c2)ccc1O [Compound 12, Curcumin]
Human α7 nAChRs
  maximal potentiating effect: 11 ± 3 fold
  activity at 10 µM: 148 ± 43%
Human α7 nAChRs; maximal effect from concentration-response, only approximated
  enhancement of ACh-induced currents: ~1100%
Human α7 nAChRs; [3]
  EC50: 85 ± 35 µM
α7 nAChRs
  reported type of α7 nAChR modulation: Type II PAM
[1]
  solubility, in words: Limited solubility

## COc1cc(/C=C/C(O)=C/C(=O)/C=C/c2ccc(O)cc2)ccc1O [Compound 13, Demethoxycurcumin]
Human α7 nAChRs
  EC50: 4.9 µM
  % ± s.e. Current vs. ACh [200 µM]: 408 ± 18%
  maximal potentiating effect: 5.5 ± 0.3 fold
  activity at 10 µM: 408%
Human α7 nAChRs; in the presence of 3 µM 13
  nH of ACh concentration-response curve: 2.36
Human α7 nAChRs; in the presence of 3 µM 13, normalized to control peak current with 1 mM ACh
  Imax of ACh concentration-response curve: 2.70
Human α7 nAChRs; [4]
  increase in apparent efficacy of ACh: 2 fold
  leftward shift of ACh dose-response curve: 3 fold
[1]
  solubility, in words: Limited solubility

## O=C(/C=C/c1ccc(O)cc1)CC(=O)/C=C/c1ccc(O)cc1 [Compound 14, Bisdemethoxycurcumin]
Human α7 nAChRs
  % ± s.e. Current vs. ACh [200 µM]: 469 ± 42%
  maximal potentiating effect: 5.5 ± 1.0 fold
  activity at 10 µM: 469%
Human α7 nAChRs; [3]
  EC50: 6.9 ± 3.1 µM
[1]
  solubility, in words: Limited solubility

## COc1ccc(/C=C/C(=O)/C=C(O)/C=C/c2ccc(OC)cc2OC)c(OC)c1 [Compound 17, (1E,4Z,6E)-1,7-Bis(2,4-dimethoxyphenyl)-5-hydroxyhepta-1,4,6-trien-3-one]
[2]
  chemical stability in solution (HPLC retention times and purity): no alteration on the retention times and purity

## COc1ccc(CCC(=O)/C=C(\O)CCc2ccc(OC)cc2OC)c(OC)c1 [Compound 23, (Z)-1,7-Bis(2,4-dimethoxyphenyl)-5-hydroxyhept-4-en-3-one]
Human α7 nAChRs
  % ± s.e. Current Vs. ACh [200 µM]: 498 ± 7%
Human α7 nAChRs; already observed at 1 µM, ACh 200 µM
  Maximal activation over the control: about 3 fold
Human α7 nAChRs; [3]
  EC50: 0.44 ± 0.28 µM
[2]
  chemical stability in solution (HPLC retention times and purity): no alteration on the retention times and purity

## O=C(/C=C(\O)CCc1ccc(O)cc1O)CCc1ccc(O)cc1O [Compound 25, (Z)-1,7-Bis(2,4-dihydroxyphenyl)-5-hydroxyhept-4-en-3-one]
Human α7 nAChRs
  % ± s.e. Current Vs. ACh [200 µM]: 251 ± 24%
[2]
  chemical stability in solution (HPLC retention times and purity): no alteration on the retention times and purity

## (1E, 4Z, 6E) -1-(2,4-Dimethoxyphenyl)-7-(2-fluoro-4-methoxyphenyl)-5-hydroxyhepta-1,4,6 -trien-3-one [Compound 22]
Human α7 nAChRs; ACh 200 µM
  PAM properties / effect on ACh-induced currents, in words: increases them only slightly
Human α7 nAChRs
  % ± s.e. Current Vs. ACh [200 µM]: 153 ± 17%

## (1E, 4Z, 6E)-1-(2,4-Dimethoxyphenyl)-7-(2,5-dimethoxyphenyl)-5-hydroxyhepta-1,4,6-trien-3-one [Compound 21]
Human α7 nAChRs; ACh 200 µM
  PAM properties / effect on ACh-induced currents, in words: No significant PAM properties
Human α7 nAChRs
  % ± s.e. Current Vs. ACh [200 µM]: 107 ± 4%

## (Z)-1-(2,4-Dimethoxyphenyl)-7-(2,5-dimethoxyphenyl)-5-hydroxyhept-4-en-3-one [Compound 24]
Human α7 nAChRs; ACh 200 µM
  PAM properties / effect on ACh-induced currents, in words: No significant PAM properties
Human α7 nAChRs
  % ± s.e. Current Vs. ACh [200 µM]: 53.5 ± 3.5%
